Experiments:
[1] = test system: IFNα-induced pSTAT3 (JAK1/TYK2 signaling pathway); test: Mouse whole blood assay, inhibition of IFNα-induced pSTAT3; format: cell-based; settings: C57BL/6J mouse blood, IFNα 20000 IU/mL
Procedure: Cytokine IFNα can induce STAT3 phosphorylation (pSTAT3) through the JAK1/TYK2 signaling pathway. […] IFNα used was Recombinant mouse IFNα (Miltenyi #130-093-131), the pSTAT3 antibody used was Alexa Fluor 488 anti-STAT3 Phospho (Tyr705) Antibody (Biolegend #651106), and the CD3 antibody used was Brilliant Violet 421 anti-mouse CD3 Antibody (Biolegend #100228). The cytokine dilution buffer was PBS+0.1% BSA, which was filtered and stored at […]. The FACS buffer was PBS+0.2% BSA+1 mM EDTA. Specific steps are described below. • 1. C57BL/6J mouse blood was added to a 96-well plate, with 90 μL per well. • 2. Each well was added with 5 μL of the compound ([…]), uniformly mixed and incubated at 37° C. for 60 min in an incubator. • 3. Each well was added with 5 μL of 20×IFNα (with a working concentration of 20000 IU/mL) as the stimulation factor, uniformly mixed and incubated at 37° C. for 30 min. • 4. Blood was transferred to a 96-deep-well plate, and each well was added with 1 mL of Lyse fix buffer (1×), uniformly mixed and incubated at 37° C. for 10 min. • 5. The plate was centrifuged at 600 g for 5 min and the supernatant was discarded. 1 mL of PBS was added to each well and centrifuged at 600 g for 5 min and the supernatant was discarded, which were repeated twice. Each well was added with 100 μL of the anti-mCD3 antibody (diluted by a fold of 80 with the cytokine dilution buffer), uniformly mixed and incubated at 4° C. for 30 min. • 6. 1 mL of PBS was added to each well and centrifuged at 600 g for 5 min and the supernatant was discarded, which were repeated twice. Each well was added with 1000 μL of Perm III, uniformly mixed and incubated at 4° C. for 30 min. • 7. The plate was centrifuged at 600 g for 5 min and the supernatant was discarded. 1 mL of PBS was added to each well and centrifuged at 600 g for 5 min and the supernatant was discarded, which were repeated twice. • 8. Each well was added with 100 μL of the anti-pSTAT3 antibody (diluted by a fold of 50 with the FACS buffer), uniformly mixed and incubated at 25° C. for 40 min. • 9. 1 mL of the FACS buffer was added to each well and centrifuged at 600 g for 5 min and the supernatant was discarded. 200 μL of the FACS buffer was added to each well and resuspended. All samples were transferred to a 96-well tip-bottom plate and uploaded. • 10. Data were collected and analyzed.

JAK1 = JAK1 (Homo sapiens (Human), UniProt P23458); test: JAK1 inhibitory activity, mobility shift assay, 1 mM ATP; format: biochemical; settings: for IC50: 1 mM ATP
Sequence of JAK1 (P23458 850-1154): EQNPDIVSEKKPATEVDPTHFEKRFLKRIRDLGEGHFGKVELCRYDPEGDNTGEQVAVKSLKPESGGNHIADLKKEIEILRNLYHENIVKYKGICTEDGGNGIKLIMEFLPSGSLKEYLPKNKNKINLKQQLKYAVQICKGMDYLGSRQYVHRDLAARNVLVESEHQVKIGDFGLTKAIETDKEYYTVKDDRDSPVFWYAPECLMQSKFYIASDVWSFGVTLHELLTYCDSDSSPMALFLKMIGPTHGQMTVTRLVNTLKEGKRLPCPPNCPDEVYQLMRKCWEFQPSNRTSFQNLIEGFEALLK
Procedure: (§1) The JAK1 inhibitory activity and the JAK2 inhibitory activity of the amide compounds provided in the above examples were tested by the method below.
(§2) Specific steps are described below. • 1. A 1× Kinase buffer was formulated. • 2. Concentration gradients of the compound were formulated: a test compound with an initial concentration of 10000 nM (JAK1) or 30000 nM (JAK2) was diluted in a 384-well plate to a 100% DMSO solution with a 100-fold final concentration, wherein the compound was diluted by a fold of 3 to 10 concentrations. 250 nL of the compound with the 100-fold final concentration was transferred with a dispenser Echo 550 to the target plate. • 3. A kinase solution with a 2.5-fold final concentration was prepared with the 1× Kinase buffer. • 4. […] The plate was centrifuged at 1000 rpm for 30 s, shaken and uniformly mixed, and incubated for 10 min at room temperature. • 6. A mixed solution of ATP (the final concentration of ATP=1 mM) and Kinase substrate with a 5/3-fold final concentration was formulated with the 1× Kinase buffer. • 7. 15 μL of the mixed solution of ATP and the substrate with the 5/3-fold final concentration was added to initiate the reaction. • 8. The 384-well plate was centrifuged at 1000 rpm for 30 s, shaken and uniformly mixed, and incubated for respective times at room temperature. • 9. The kinase reaction was stopped by adding 30 μL of a detection termination solution, and the plate was centrifuged at 1000 rpm for 30 s and shaken and uniformly mixed. • 10. The conversion rate was read with Caliper EZ Reader and the half maximal inhibitory concentration (IC50) was calculated.

JAK2 [2] = molecular target: T1, JAK2 (Homo sapiens (Human), UniProt O60674); test: JAK2 inhibitory activity, mobility shift assay, 1 mM ATP; format: biochemical
Procedure: as §1, §2
Target sequence in this assay (O60674 826-1132): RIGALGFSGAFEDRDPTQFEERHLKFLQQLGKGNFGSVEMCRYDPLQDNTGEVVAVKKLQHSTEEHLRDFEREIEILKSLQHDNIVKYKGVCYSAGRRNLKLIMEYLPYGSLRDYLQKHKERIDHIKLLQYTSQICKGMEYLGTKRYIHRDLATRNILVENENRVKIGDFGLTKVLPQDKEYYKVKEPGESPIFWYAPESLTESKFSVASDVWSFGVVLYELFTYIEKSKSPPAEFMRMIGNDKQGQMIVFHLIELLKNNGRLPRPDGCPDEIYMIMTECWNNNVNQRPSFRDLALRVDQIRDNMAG

JAK2 [3] = molecular target: T1, JAK2; settings: selective JAK1 inhibitors, literature; cited from earlier work
Target sequence in this assay (O60674 whole entry, species assumed): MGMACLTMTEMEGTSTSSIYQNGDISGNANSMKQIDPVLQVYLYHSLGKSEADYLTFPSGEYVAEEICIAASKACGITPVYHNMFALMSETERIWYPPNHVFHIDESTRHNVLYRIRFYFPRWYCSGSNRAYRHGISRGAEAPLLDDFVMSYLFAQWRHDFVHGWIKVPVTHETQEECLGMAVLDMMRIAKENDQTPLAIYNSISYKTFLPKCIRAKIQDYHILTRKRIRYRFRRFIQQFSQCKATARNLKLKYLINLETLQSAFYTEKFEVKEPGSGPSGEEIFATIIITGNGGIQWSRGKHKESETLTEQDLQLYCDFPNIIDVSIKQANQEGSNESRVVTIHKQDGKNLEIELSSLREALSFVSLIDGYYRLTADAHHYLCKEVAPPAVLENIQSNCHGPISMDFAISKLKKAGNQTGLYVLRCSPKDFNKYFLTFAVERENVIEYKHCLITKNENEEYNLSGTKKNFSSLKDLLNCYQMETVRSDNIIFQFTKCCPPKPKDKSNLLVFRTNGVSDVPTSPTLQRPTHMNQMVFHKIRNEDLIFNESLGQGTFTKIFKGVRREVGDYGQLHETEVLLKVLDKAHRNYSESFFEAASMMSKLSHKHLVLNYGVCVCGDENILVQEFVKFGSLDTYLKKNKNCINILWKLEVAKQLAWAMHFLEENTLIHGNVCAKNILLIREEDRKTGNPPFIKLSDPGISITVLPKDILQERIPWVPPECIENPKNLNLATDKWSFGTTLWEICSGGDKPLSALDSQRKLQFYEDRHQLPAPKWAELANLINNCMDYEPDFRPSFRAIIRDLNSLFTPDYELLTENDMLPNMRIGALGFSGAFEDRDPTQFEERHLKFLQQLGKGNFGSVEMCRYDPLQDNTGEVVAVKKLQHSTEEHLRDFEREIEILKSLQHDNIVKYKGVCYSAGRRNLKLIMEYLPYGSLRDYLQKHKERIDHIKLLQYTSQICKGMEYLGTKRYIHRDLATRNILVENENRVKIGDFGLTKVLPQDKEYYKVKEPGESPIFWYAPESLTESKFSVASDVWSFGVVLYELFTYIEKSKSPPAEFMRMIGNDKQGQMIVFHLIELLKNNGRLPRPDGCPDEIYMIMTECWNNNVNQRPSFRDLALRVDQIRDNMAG

Row | SMILES | IC50 [1] [nM] | IC50 (JAK1; Table 7) [nM] | IC50 (JAK1; Table 8) [nM] | JAK2/JAK1 Multiple selectivity (JAK1; ratio of JAK2 IC50 to JAK1 IC50, 1 mM ATP) | IC50 (JAK2 [2]; Table 7) [nM] | IC50 (JAK2 [2]; Table 8) [nM] | selectivity for JAK2 in kinase assays (JAK2 [3])
1 | COc1nn(C)cc1Nc1ncc(C)c(-c2c[nH]c3c(NC(=O)[C@H]4CC(F)(F)CN4[C@@H]4CCN(C)C4)cccc23)n1 [Example 32, (2R,3′R)-4,4-difluoro-N-(3-(2-((3-methoxy-1-methyl-1H-pyrazol-4-yl)amino)-5-methylpyrimidin-4-yl)-1H-indol-7-yl)-1′-methyl-[1,3′-bipyrrolidine]-2-carboxamide] | 121 | 26 | 26 | 149 | 3880 | 3880 | 
2 | O=C(Nc1nc2cccc(-c3ccc(CN4CCS(=O)(=O)CC4)cc3)n2n1)C1CC1 [filgotinib] |  |  |  |  |  |  | less than three
3 | CC[C@@H]1CN(C(=O)NCC(F)(F)F)C[C@@H]1c1cnc2cnc3[nH]ccc3n12 [upadacitinib] |  |  |  |  |  |  | less than three

From patent US20230416237A1, “AMIDE COMPOUND, PHARMACEUTICAL COMPOSITION AND USE THEREOF” (SHENZHEN BO LI JIAN MEDICINE CO., LTD., priority 2020, published 2023)
